Consider five molecules from patent publication US5639793A, “Mammalian DNA topoisomerase II inhibitor and method” (The University of North Carolina at Chapel Hill, priority 1995, dated 1997).

“Also recorded” adds a separate entry of the source. Like-named read-outs stand apart in the source and are kept apart here.

The conditions of data set [1]: background; cited from earlier work.
Data set [2] concerns human osteogenic sarcoma (HOS) cells. The data set can be described thus: Protein-linked DNA breaks in HOS cells (K-SDS precipitation). In kind it is cell-based. The following applies: for Induction of protein-linked DNA breaks: 30 minutes; for Induction of protein-linked DNA breaks in HOS cells: 20 micromolar, FIG. 9B; for Reversal of protein-linked DNA breaks after drug removal: an hour after removal. The procedure: Quantitation of protein-linked DNA breaks was performed according to a published procedure (Rowe). DNA in growing cells was labeled by adding methyl-^3 H-thymidine. […] Cells were lysed and protein-linked DNA complexes were precipitated by the K-SDS precipitiation method (Rowe).
(§1) A modified K-SDS precipitation assay was used to quantitate in vivo formation of protein-linked DNA breaks (Rowe). HOS cells were grown in Eagle's medium. The DNA in logarithmically growing cells (about 2×10^5 cells) was labelled by adding tritiated methyl-thymidine (specific activity: 40 Ci/mmol) into the medium to a final concentration of 0.5 microCurie per ml. After overnight incubation, cells were washed and incubated for another 2 hours at 37° C. The cells were then treated with various concentrations of drugs for 30 minutes. The cells were lysed with 1 ml prewarmed lysis solution containing 1.25% SDS, 5 mM EDTA (pH 8) salmon sperm DNA (0.4 mg/ml).
(§2) The lysate was transferred to a 1.5 ml Eppendorf tube and after syringing 8 times through a 22 G 11/2 gauge needle, 250 microliter of 325 mM KCl were added. The sample was cooled on ice for 10 minutes and centrifuged at 4° C. The pellet was resuspended in 10 mM Tris-HCl (pH 8)-100 mM KCl-1 mM EDTA and salmon sperm DNA (0.1 mg/ml) and placed at 65° C. for 10 minutes with occasional mixing. The suspension was cooled on ice for 10 minutes and recentrifuged. The pellet was washed again before resuspending in water (65° C.). The suspension was combined with 4 ml scintillation fluid and the radioactivity was determined.
(§3) Protein-linked DNA breaks assays were performed as described for Example 4 using HOS and HOS colR cells. Cells were treated with 20 micromolar […], TFC and TMBC.

A further data set has as its system HIV replication. The following applies: background (Baum); cited from earlier work.
Data set [3] deals with mammalian DNA topoisomerase II. In words: P4 DNA unknotting assay, topoisomerase II inhibition in vitro. Format: biochemical, HeLa (human). To be noted: for Topoisomerase II activity on decreasing drug concentration (P4 DNA unknotting): 2-fold serial dilutions; for Potency relative to VP-16 (topoisomerase II inhibition): more potent than VP-16. The procedure:
DNA topoisomerase II was purified as described (Kashiwada). Briefly, a 150 mM NaCl extract from Triton X-100-treated HeLa cell nuclei was obtained. Salt was dialyzed and the partially purified enzyme was loaded on a heparin-Sepahrose CL-6B column and batch eluted with a buffer containing increasing salt concentrations.
Enzyme activity was measured using the P4 DNA unknotting assay (Liu, 1981). P4 DNA isolated from bacteriophage P4 consists of monomeric DNA circles with their cohesive ends hydrogen-bonded and contains multiple topological knots. Such highly knotted P4 DNA can be converted to its simple circular form by mammalian DNA topoisomerase II, and can be used as a sensitive assay to detect topoisomerase II activity.
P4 DNA unknotting reactions by topoisomerase II were performed in the absence or presence of potential topoisomerase II inhibitors. […] Products from the […] reactions were run out on an agarose gel to determine the extent of P4 DNA unknotting and stained with ethidium bromide.
Topoisomerase II was purified from calf thymus by a known method (Kashiwada). P4 DNA was prepared as described (Liu, 1983). Agarose gel assays for P4 DNA unknotting were performed as follows. Reactions (20 microliters) containing 50 mM Tris-HCl (pH 7.5), 100 mM KCl, 10 mM magnesium chloride, 1 mM ATP, 0.5 mM dithiothreitol, 0.5 mM EDTA, bovine serum albumin (30 microgram/ml), 100 ng P4 DNA, one unit of HeLa DNA topoisomerase II, and varying concentrations of topoisomerase II inhibitors were incubated at 37° C. After 30 minutes, reactions were terminated by addition of a solution containing 10% SDS. The samples were electrophoresed through a 1% agarose gel in 90 mM Trisborate (pH 8.3)-2 mM EDTA buffer (Rowe).

The test system of another data set is HOS colR cells. The data set can be described thus: Protein-linked DNA breaks in HOS colR cells. The following applies: 20 micromolar, FIG. 9B. Format: cell-based, human. The procedure:
The amount of protein-linked DNA breaks caused by VP-16, TFC and TMBC were compared in HOS and HOS colR cells to determine whether […] glycoprotein expression would affect these drugs' ability to induce protein-linked DNA breaks and inhibit topoisomerase II activity.
as §1, §2, §3

Data set [4] relates to HOS cells resistant to colchicine (HOS colR), expressing p170 glycoprotein. In words: HOS colR cell growth inhibition. In kind it is cell-based, human. To be noted: for EC50: HOS colR cells; for EC50 for HOS colR cells compared with HOS cells: HOS colR versus HOS not expressing p170. The procedure: (§4) Cell growth inhibition assays were performed according to published procedures (Crumpton).
(§5) The HOS cell growth inhibition assays were done according to a published procedure (Crumpton). All cells were grown in Eagle's minimium essential medium supplemented with 10% fetal bovine serum. Flasks were seeded at a density of 1×10^3 cell/cm^2 for monolayer cultures or 2×10^4 /ml for suspension cultures. Suspension cultures were used immediately for drug addition after dilution to a suitable starting density, and, about 24 hours after seeding, the compounds to be tested were added to the monolayer cultures. […] Control flasks also contained 0.1% DMSO.
(§6) Colonies of about 50 or more cells were counted and the plating efficiency was calculated as the per cent cells that were able to form colonies (Goz).

In another data set the test system is HOS cells. In words: Plating efficiency / cytotoxicity in HOS cells. To be noted: one-hour treatment, Table 1. The procedure:
Plating efficiencies are indicative of a compound's cytotoxicity (Goz).
as §6

For data set [5], the system named is BHK-Ve cells (BHK-B cells treated with vincristine in the presence of verapamil). In words: BHK-Ve cell growth inhibition. In kind it is cell-based, hamster. The procedure: as §4
Verapamil inhibits drug binding to the p170 glycoprotein drug efflux pump.
as §5, §6

Data set [6] concerns BHK-B cells (vincristine-selected, expressing p170 glycoprotein). The following applies: for BHK-B growth inhibition compared with BHK, in words: BHK-B versus BHK; for Export by the drug efflux pump: p170 glycoprotein, conclusion from BHK-B data; for EC50: read-out: BHK-B-EC50. The procedure:
as §4
BHK-B cells are baby hamster kidney cells that have been selected with 0.05 microgram/ml vincristine and that express p170 glycoprotein. Sensitivity of BHK-B cells to TFC, TMBC and vincristine was investigated.
as §5, §6

In data set [7] the test system is human osteogenic sarcoma (HOS) cells. In words: HOS cell growth inhibition (antiproliferative activity). In kind it is cell-based. The method, then:
(§7) Additionally, baby hamster kidney (BHK) cell growth inhibition by these derivatives was investigated.
as §4, §5, §6

Data set [8] relates to baby hamster kidney (BHK) cells. The data set can be described thus: BHK cell growth inhibition. Format: cell-based. The procedure: as §7, §4, §5, §6
Data set [9] concerns mammalian DNA topoisomerase II. The following applies: D'Arpa; cited from earlier work.
Setting [10] is: 10-50 micromolar TFC, increasing concentrations TMBC.
[11] abbreviates: Table 2, read-out: HOS ColR EC50.
[12] abbreviates: read-out: EC50, HOS cell replication.

For `COc1cc2c(c(OC)c1OC)-c1ccc(OC)c(=O)cc1[C@@H](NC(C)=O)CC2` [Colchicine, colchicine, reference compound], the “Toxicity at therapeutic doses” value in data set [1] is recorded as “usually at toxic or nearly toxic doses”. The “Induction of protein-linked DNA breaks” value in data set [2] (colchicine 50 micromolar) is recorded as “did not induce protein-linked DNA breaks”. For the same molecule, the “Inhibition of HIV replication” value in the data set on HIV replication is “inhibitor of HIV replication”. Moreover, in data set [3] (concentrations as high as 200 micromolar), the “Inhibition of topoisomerase II activity” value is given as “does not appear to inhibit topoisomerase II activity”.

What is called EC50 is the concentration that produces a half-maximal response. For `O=C(N[C@H]1CCc2cc(O)c(O)c(O)c2-c2ccc(O)c(=O)cc21)C(F)(F)F` [TFC, N-trifluoroacetyl-1,2,3,10-tetrademethyldeactylcolchicine], in the data set on HOS colR cells, the “Induction of protein-linked DNA breaks in HOS colR cells” value (shortened to “Induction … in HOS colR cells”) was “Neither protein-linked DNA cleavage by either TFC or TMBC appear to be affected by the expression of g170 glycoprotein”. Moreover, in [2], the “Induction of protein-linked DNA breaks in HOS cells” value (“Induction … in HOS cells” for short) was “can induce protein-linked DNA cleavage to a lesser extent”. Further, in data set [2] (setting [10]), the “Induction of protein-linked DNA breaks” value is listed as “induces DNA breaks in a dose-dependent manner; also recorded: induce protein-linked DNA breaks in a dose-dependent fashion”. In addition, the “Reversal of protein-linked DNA breaks after drug removal” value in data set [2] is “within an hour all the protein-linked DNA breaks have been reversed”. In data set [2] (within half an hour after removal), the “Protein-linked DNA breaks reversed within half an hour of drug removal” value is listed as “approximately 90%”. The EC50 amounted to 26 µM in [4] (setting [11]); 26 µM in data set [4] (read-out: EC50, HOS colR cells); 37 µM in data set [5] (Table 2, read-out: BHK-Ve-EC50); 37 µM in [5] (read-out: EC50, BHK-Ve cells); 82 µM in data set [6] (BHK-B cells, Table 2); 28 µM in data set [7] (Table 1, read-out: HOS--EC50). Besides, the EC50 in data set [7] (setting [12]) stood at 28 µM. For the same molecule, in data set [4], the “EC50 for HOS colR cells compared with HOS cells” value was “remained virtually unchanged”. The same molecule came in with an HOS--LD50 in the data set on HOS cells of 14 µM. Also, the “Topoisomerase II activity on decreasing drug concentration (P4 DNA unknotting)” value in data set [3] (50 to 6.25 micromolar, FIG. 8 lanes 7-10) was “more striking increase of enzyme activity as the concentration of TFC is decreased”. Besides, in data set [3], the “Potency relative to VP-16 (topoisomerase II inhibition)” value is “about 2 fold”. For the same molecule, the “BHK-B growth inhibition compared with BHK, in words” value in data set [6] is “inhibited by approximately similar concentrations”. Moreover, the “Export by the drug efflux pump” value in data set [6] was “are not”.

Turning to `O=C(N[C@H]1CCc2cc(O)c(O)c(O)c2-c2ccc(O)c(=O)cc21)c1cc(O)c(O)c(O)c1` [TMBC, N-(3',4',5'-trihydroxybenzoyl)-1,2,3,10-tetrademethyldeacetylcolchicine], the “Induction … in HOS colR cells” value in the data set with HOS colR cells is on record as “Neither protein-linked DNA cleavage by either TFC or TMBC appear to be affected by the expression of g170 glycoprotein”. The EC50 is 28 µM in data set [8] (Table 1, read-out: BHK--EC50); 28 µM in data set [8] (read-out: EC50, BHK growth inhibition); 28 µM in [4] (setting [11]); 28 µM in data set [4] (read-out: EC50, HOS colR cells); 24 µM in data set [5] (Table 2, read-out: BHK-Ve-EC50); 24 µM in data set [5] (read-out: EC50, BHK-Ve cells). Also, the EC50 in data set [6] (BHK-B cells, Table 2) stood at 13 µM; in data set [7] (Table 1, read-out: HOS--EC50), 21 µM; in data set [7] (setting [12]) it was 21 µM. Besides, the “Induction … in HOS cells” value in [2] is reported as “can induce protein-linked DNA cleavage to a lesser extent”. For the same molecule, in [2] (setting [10]), the “Induction of protein-linked DNA breaks” value is recorded as “almost as effective as TFC for protein-linked DNA break induction; also recorded: induce protein-linked DNA breaks in a dose-dependent fashion”. In data set [2], the “Reversal of protein-linked DNA breaks after drug removal” value is “more slowly reversed than for TFC, so that after an hour's time after reversal some protein-linked DNA breaks still remain”. The “EC50 for HOS colR cells compared with HOS cells” value in [4] was “remained virtually unchanged”. The molecule also had an HOS--LD50 with HOS cells of 18 µM. Further, the “Potency relative to VP-16 (topoisomerase II inhibition)” value in [3] is given as roughly 17 fold. For the same molecule, the “BHK-B growth inhibition compared with BHK, in words” value in data set [6] is listed as “inhibited by approximately similar concentrations”. The “Export by the drug efflux pump” value in data set [6] was “are not”.

In the case of `COc1cc([C@@H]2c3cc4c(cc3[C@@H](O[C@@H]3O[C@@H]5CO[C@@H](C)O[C@H]5[C@H](O)[C@H]3O)[C@H]3COC(=O)[C@H]23)OCO4)cc(OC)c1O` [VP-16, etoposide, reference compound], the “Induction … in HOS colR cells” value in the data set on HOS colR cells is recorded as “limited effect in causing protein-linked DNA breaks”. Moreover, the “Induction … in HOS cells” value in data set [2] is on record as “very effective to cause protein-linked DNA breaks”. In addition, the “Topoisomerase II inhibition, known” value in data set [9] is “known to inhibit topoisomerase II activity”. In data set [3] (100 to 12.5 micromolar, FIG. 8 lanes 3-6), the “Topoisomerase II activity on decreasing drug concentration (P4 DNA unknotting)” value is “increase of topoisomerase II activity as the concentration of VP-16 is decreased”.

On to `CC[C@]1(O)C[C@H]2CN(CCc3c([nH]c4ccccc34)[C@@](C(=O)OC)(c3cc4c(cc3OC)N(C=O)[C@H]3[C@@](O)(C(=O)OC)[C@H](OC(C)=O)[C@]5(CC)C=CCN6CC[C@]43[C@@H]65)C2)C1` [Vincristine, reference compound], for which, in [8] (Table 1), the BHK--EC50 was found to be 0.006 µg/mL. The “BHK-Ve-EC50 / concentration necessary to inhibit BHK-Ve cell growth” value in data set [5] (Table 2) stood at 2.7 µg/mL. For the same molecule, in data set [6] (BHK-B cells, Table 2), the BHK-B-EC50 came to 0.34 µg/mL. Further, the “Concentration necessary to inhibit BHK-B growth relative to BHK” value in data set [6] (hamster, bhk-b vs bhk cells) is listed as “approximately 50 fold”. Besides, the “Export by the drug efflux pump” value in data set [6] was “exported by the drug efflux pump”.
